Measured values as given in a melting point compilation (Tetko et al.; mined from patent text by program, amines drawn as free bases though some values may be those of a salt).

N#Cc1ccccc1Sc1ccc([N+](=O)[O-])cc1 and O=C1c2ccccc2C(=O)N1CCOc1ccc([N+](=O)[O-])cc1 fall in the same range of melting point: 151 to 153 °C for the first, 151 to 153 °C for the second.

First: C[Si](C)(O[C@@H]1c2cc(Br)ccc2-c2ccc(Br)cc2[C@H]1O[Si](C)(C)c1ccccc1)c1ccccc1 (relative stereo)
Second: CN(C(=O)c1cnc2c(C(F)(F)F)cccc2c1-c1ccccc1)c1ccccc1
The melting point of the first is lower: 103 to 104 °C for the first, 188 to 190 °C for the second.

First: COC(=O)NC(CC(=O)c1ccccc1)C(=O)O (stereo unspecified)
Second: CC(CS)C(=O)NC(CC(=O)O)C(=O)O (stereo unspecified)
The melting point of the first is higher: 132 to 135 °C for the first, 129 to 131 °C for the second.

Compared with [N-]=[N+]=N[C@H]1CC[C@@H](NC(=O)OCc2ccccc2)CC1, COc1ccccc1CN[C@H]1CCCN[C@H]1Cc1ccccc1 (relative stereo) is higher in melting point: 42 to 46 °C for the first, > 241 °C for the second.

First: COC[C@H]1CCCN1C(=O)c1ccc(-c2[nH]nc3c2C(=O)c2c(NC(=O)NN4CCOCC4)cccc2-3)s1
Second: Cc1cc(-n2cccn2)c2cccc(OCc3c(Cl)ccc(S(=O)(=O)N4CCOCC4)c3Cl)c2n1
The melting point of the first is higher: 262 °C for the first, 178 °C for the second.

First: COc1ccc2c(c1)Sc1cc([N+](=O)[O-])ccc1N2C(C)=O
Second: O=C(O)c1cc([N+](=O)[O-])cc2c1Nc1ccc(CCc3ccc(Cl)c(Cl)c3)cc1O2
The melting point of the first is lower: 156 to 157 °C for the first, > 250 °C for the second.

First: CCn1cc(C(=O)O)c(=O)c2cc(F)c(N3CCNC(c4ccc(C)o4)C3)cc21 (stereo unspecified)
Second: O=C(O)c1cn(-c2ccc(F)cc2)c2c(F)c(N3CCC(n4ccnn4)C3)c(F)cc2c1=O (stereo unspecified)
The melting point of the first is lower: 186 to 188 °C for the first, 303 °C for the second.

First: CCOC(=O)C(Cl)=Cc1cc(N(C(N)=S)c2cscc2C(=O)OC)ccc1Cl
Second: CCOC(=O)c1cc(CC(C(=O)OCC)C(=O)OCC)c2ccccn2c1=O
The melting point of the first is higher: 158 to 160 °C for the first, 105 to 108 °C for the second.

First: O=C(O)Cn1cc(Cc2nc3c(F)c(F)cc(F)c3s2)c2ccc(Cl)cc21
Second: O=C(O)Cn1cc(Cc2nc3c(F)c(F)cc(F)c3s2)c2c(Cl)cccc21
The melting point of the first is lower: 194 to 195 °C for the first, 203 to 206 °C for the second.

Compared with CCOC(CNC(=S)Nc1ccn(C)n1)OCC, CCOC(=O)C=Cc1c(C)nc(SCc2ccc(OC)cc2)n1C is higher in melting point: 152 to 155 °C for the first, 165 to 167 °C for the second.

Compared with CNc1nc(-c2cccc(-c3cnc4ccccc4c3)c2)c2cc(OC)c(OC)cc2n1, Cc1csc(-c2ccc3c(=O)n(CC(C)C)c(CN)c(-c4ccccc4)c3c2)n1 is lower in melting point: 218 to 220 °C for the first, 162 to 163 °C for the second.

First: COc1ccc(C[C@@H](NC(=O)C2CCCCC2)[C@@H](O)c2ccc(F)cc2)cc1 (racemic)
Second: COc1cc(C(O)c2ccc(C(=O)N(C(C)C)C3CCCCC3)cc2)cc(OC)c1OC (stereo unspecified)
The melting point of the first is higher: 193 to 194 °C for the first, 158 to 160 °C for the second.

First: CON=C(c1cnco1)c1ccccc1COc1cc(C)ccc1C
Second: C#CCOc1cccc(NC(=O)c2ccccc2C)c1
The melting point of the first is lower: 90 to 91 °C for the first, 93 to 95 °C for the second.

First: O=C(O)[C@@H]1C[C@@H](O)CN1S(=O)(=O)c1ccc2ccccc2c1
Second: O=S(=O)(Nc1ccccc1OCC1CCN(c2ccncc2)CC1)c1ccc2cc(Br)ccc2c1
The melting point of the first is lower: 140 °C for the first, 197 to 200 °C for the second.

Compared with CN1CCN(Cc2ccccc2Cl)C(C2=NCCO2)C1 (stereo unspecified), Cc1nnc(CN2CCCC2)n1-c1ccc(Cl)cc1C(=O)c1ccccc1 is higher in melting point: 96.8 °C for the first, 174 to 176 °C for the second.

First: CC(=O)OC(C)c1ccc(Cl)c2nc3n(c12)CCCN3c1ccc(Cl)cc1Cl (stereo unspecified)
Second: CCOC(=O)CSc1nc(Cl)cc(Nc2ccc(Cl)cc2)n1
The melting point of the first is higher: 204 to 206 °C for the first, 109 to 112 °C for the second.

Compared with COc1cc(C(=O)O)ccc1Cn1ccc2ccc(NC(=O)CC3CCCC3)cc21, CSc1ccc(NC(=O)N(O)C2CCCCC2)cc1 is lower in melting point: 259 to 260 °C for the first, 151 to 153 °C for the second.

First: CC(C)Cn1c(=O)n(C)c(=O)c2cn(Cc3cccc4ccccc34)nc21
Second: CCCCN(C)C(=O)c1cccc(-c2nc(=O)c3ccccc3s2)n1
The melting point of the first is higher: 178 °C for the first, 80 to 81.6 °C for the second.

First: CC(C)[Si](Oc1ccc2c(c1)CCC2=O)(C(C)C)C(C)C
Second: CC(C)[Si](Oc1ccc([C@H](O)[C@H](C)N2CCC(O)(c3ccccc3)CC2)cc1)(C(C)C)C(C)C (relative stereo)
The melting point of the first is lower: 63 to 63.5 °C for the first, 148 to 151 °C for the second.

First: CN1C(=O)CC[C@]2(C)c3ccc(-c4ccc(F)c(F)c4F)cc3CC[C@@H]12
Second: COc1ccc(-c2ccc3c(c2)CCCC3=O)c2c1OCCO2
The melting point of the first is lower: 100 to 102 °C for the first, 156 to 158 °C for the second.

Compared with O=C(O)c1cc(C(F)(F)F)cc(Cl)c1-n1cnc(C(F)(F)C(F)(F)F)cc1=O, Cc1ccn(-c2ccc(C(=O)O)c(C(F)(F)F)c2)n1 is higher in melting point: 189 to 190 °C for the first, 192 to 194 °C for the second.

First: CCCn1c(CCOC)nc2c(N)nc3cc(OCCCS(C)(=O)=O)ccc3c21
Second: CCCc1nc2c(N)nc(C)c(C)c2n1CCCCN(O)C(=O)c1ccccc1
The melting point of the first is higher: 170 to 171 °C for the first, 132 to 134 °C for the second.

First: COc1cc(OC(C)(C)C(=O)O)c(C=O)cc1-c1cccs1
Second: O=C(O)Cc1cccc(Oc2ccccc2O)c1O
The melting point of the first is higher: 187 to 188 °C for the first, 91 to 93 °C for the second.

First: COc1cc2c(cc1OC(C)C)C(=O)C1c3c(cc(OC(C)C)c(OC)c3-2)CCN1C (stereo unspecified)
Second: COc1cc(C(=O)OC(C)C)cc(OC)c1Cc1cnc(N)nc1N
The melting point of the first is lower: 82 to 84 °C for the first, 209 to 213 °C for the second.

First: COC(=O)C1C=CCn2c(=O)n(CO)c(=O)n21 (stereo unspecified)
Second: CC(=O)NCC1CN(c2cc(F)c(N3CCN(C(=O)COC(=O)n4ccnc4)CC3)c(F)c2)C(=O)O1 (stereo unspecified)
The melting point of the first is lower: 123 to 125 °C for the first, 199 to 200 °C for the second.

First: C[C@H](NC(=O)c1c[nH]c2ncc(-c3ccc(C(=O)NC4CCOCC4)s3)nc12)C(C)(C)C
Second: CCCC(C)(C)C(=O)NC1CCCNC(=O)C1 (stereo unspecified)
The melting point of the first is higher: 333 to 334 °C for the first, 84 to 85 °C for the second.

First: O=C1N(CC2CCCCO2)c2ccccc2C12COc1cc3c(cc12)OCCO3 (stereo unspecified)
Second: CC1CN(C2=Nc3ccccc3Oc3ccccc32)CC(C)N1 (stereo unspecified)
The melting point of the first is higher: 158 to 166 °C for the first, 112 to 114 °C for the second.

First: C=CCOc1ccccc1C=NNC(=N)N
Second: COC(=O)C(c1ccccc1CCl)C(OC)OC (stereo unspecified)
The melting point of the first is higher: 124 °C for the first, 63.5 to 64.5 °C for the second.

Cn1nc([N+](=O)[O-])cc1CO and CCCCCOC(=O)C1CC(=O)NN1c1ncccc1Cl (stereo unspecified) fall in the same range of melting point: 66 to 68 °C for the first, 66 to 68 °C for the second.

First: CNC(=O)Oc1ccc2c(c1)CCN2
Second: CCc1cccc2c1CCNC2=O
The melting point of the first is lower: 109 to 112 °C for the first, 123 to 126 °C for the second.

First: Nc1nc2[nH]c(CCCc3ccc(C(=O)N[C@@H](CCC(=O)O)C(=O)O)s3)cc2c(=O)[nH]1
Second: CCOC(=O)Cc1nn(C(c2ccccn2)c2ncno2)c(=O)c2ccccc12 (stereo unspecified)
The melting point of the first is higher: 175 to 176 °C for the first, 118 to 128 °C for the second.

First: O=C(Nc1cccc(S(=O)(=O)Nc2ccccc2)c1)NC1N=C(c2ccccc2F)c2ccccc2N(CC(=O)N2CC3CCC(CC3)C2)C1=O (racemic)
Second: COC(=O)CCCOc1ccc(CNC(=O)C2Cc3ccccc3N2S(=O)(=O)c2ccc(-c3cccc(C(F)(F)F)c3)cc2)cc1 (stereo unspecified)
The melting point of the first is higher: 181 to 188 °C for the first, 50 °C for the second.

First: N#Cc1cccn(-c2cccnc2Cl)c1=O
Second: N#Cc1c[nH]cc1-c1ccc(F)c(Cl)c1F
The melting point of the first is lower: 145 °C for the first, 218 to 219 °C for the second.

First: Cc1cc(=O)n(-c2cccc(Cl)c2)n1C
Second: C[C@@H](n1cnc2cc(Cl)ccc2c1=O)[C@](O)(Cn1cncn1)c1ccccc1F
The melting point of the first is lower: 98 to 100 °C for the first, 124 to 129 °C for the second.

First: COC(=O)CON=C(C(=O)O)C(=O)CCl
Second: CCC1(Cl)C(=O)c2c(cc(OCC(=O)O)c(Cl)c2Cl)C1Cl (stereo unspecified)
The melting point of the first is lower: 127 to 128 °C for the first, 186 °C for the second.

Compared with COc1cccc(Sc2ccc(O)cc2)n1, CC(C)(C)OC(=O)N[C@@H](C=O)Cc1ccc(OCc2ccccc2)cc1 is higher in melting point: 88.5 to 94.5 °C for the first, 98 to 99 °C for the second.

First: COC(=O)c1cc2c(c(OC)c1Br)OCO2
Second: CCOC(=O)c1nc2cc(C)sc2nc1N
The melting point of the first is lower: 85.5 to 86 °C for the first, 121 to 123 °C for the second.

CSc1nc(N2CCc3ccccc3CC2)c(C#N)c(=O)[nH]1 and N#CC1=C(C2CC2)Nc2n[nH]cc2C1c1ccccc1Cl (stereo unspecified) cannot be ordered by melting point: > 250 °C for the first, > 250 °C for the second.

Compared with Cc1ccc(S(=O)(=O)Oc2ccc(S(=O)(=O)C3(C(=O)C(C)C)CC3)cc2)cc1, O=C(O)COc1ccc(CCCS(=O)(=O)c2ccc(Cl)cc2)cc1 is higher in melting point: 106 to 107 °C for the first, 159 to 160 °C for the second.

First: CCOCc1nc2c(N)nc3cc(N4CCCC4=O)cnc3c2n1CC(C)C
Second: C=CCOCc1ccc(-c2ncccc2S(=O)(=O)Nc2ncc(C)nc2OC)cc1
The melting point of the first is higher: 198 °C for the first, 72 to 76 °C for the second.

First: O=C(CCCCC1SCC2NC(=O)NC21)NCCOCCOCCN1C(=O)C=C(Br)C1=O (stereo unspecified)
Second: CCCCCCCCCCCCCCCCCC(=O)n1cc(F)c(=O)n(C(=O)c2ccccc2)c1=O
The melting point of the first is higher: 95 to 98 °C for the first, 85 °C for the second.

First: CCC(C)CNC1=NS(=O)(=O)c2sc(Cl)cc2N1 (stereo unspecified)
Second: CCOC(=O)c1ccc(-c2cnc3c(c2)N(Cc2cc(F)ccc2F)C(=O)CN3)cc1
The melting point of the first is higher: 232 to 234 °C for the first, 201 to 203 °C for the second.

Compared with CC(C)c1nc(CCOC(=O)OCCc2nc(C(C)C)c(Sc3cc(Cl)cc(Cl)c3)n2C)n(C)c1Sc1cc(Cl)cc(Cl)c1, O=C1c2c(OCc3ccccc3)c(OCc3ccccc3)cc(OCc3ccccc3)c2-c2nn(CCNCCO)c3ccc(Cl)c1c23 is higher in melting point: 157 to 159 °C for the first, 164 to 167 °C for the second.

First: CN(C(=O)c1ccccc1-c1ccc(F)cc1)C1N(C)C(c2ccc(F)cc2)=NC1(C(F)(F)F)C(F)(F)F (stereo unspecified)
Second: CC(C)(C)C(=O)COc1nn(CC=C(Cl)Cl)c(-c2ccc(S(C)(=O)=O)cc2)c1-c1ccc(F)cc1
The melting point of the first is lower: 112 to 113 °C for the first, 156 to 158 °C for the second.

Compared with CCOC(=O)C(C)(C)Oc1ccc(OCc2nc(-c3ccc(C(C)(C)C)cc3)no2)cc1, N#Cc1ccc(OCCCCCCOc2ccc(-c3cc4cc(C#N)ccc4o3)cc2)cc1 is higher in melting point: 79 to 81 °C for the first, 148 to 151 °C for the second.

First: O=C(c1ccco1)N1N=CCC1c1ccccc1 (stereo unspecified)
Second: Cn1cc(-c2cc3nccnc3[nH]2)c2ccccc21
The melting point of the first is lower: 136 to 137 °C for the first, 264 to 266 °C for the second.

First: CC(=O)OC1CSC(Oc2ccc(-c3ccncc3)nc2)C(OC(C)=O)C1OC(C)=O (stereo unspecified)
Second: CC(C)c1ccc(N(Cc2ccc(N(C)C)cc2)C(=O)C2CCSc3ccccc32)cc1 (stereo unspecified)
The melting point of the first is higher: 189 °C for the first, 118 °C for the second.

First: C=CCC1(CC=C)c2cccc(Cl)c2C(=O)c2c(OC)cccc21
Second: O=CNNc1ccc(NC(=S)N2CCCC2)cc1
The melting point of the first is lower: 151 to 153 °C for the first, 199 to 201 °C for the second.
